Laboratory results taken from PubChem BioAssay AID1253 (Columbia University Molecular Screening Center, 2008).
The source made the active and inactive calls.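 Rule for the calls: active = IC50 under 10 µM in the follow-up dose response; inactive = IC50 10 µM or more, or under 40% single-dose inhibition.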

Target: Tyrosine-protein phosphatase non-receptor type 22 (Homo sapiens) (UniProt Q9Y2R2)
Experiment: PTPN22 enzyme inhibition – biochemical, DiFMUP fluorescence, retest and dose response, confirmation (AID 1253)
Settings: recombinant LYP; for inhibition: at 10 µM, stronger effect = higher value

Chain of Tyrosine-protein phosphatase non-receptor type 22 (Homo sapiens) (Q9Y2R2 whole entry, looked up): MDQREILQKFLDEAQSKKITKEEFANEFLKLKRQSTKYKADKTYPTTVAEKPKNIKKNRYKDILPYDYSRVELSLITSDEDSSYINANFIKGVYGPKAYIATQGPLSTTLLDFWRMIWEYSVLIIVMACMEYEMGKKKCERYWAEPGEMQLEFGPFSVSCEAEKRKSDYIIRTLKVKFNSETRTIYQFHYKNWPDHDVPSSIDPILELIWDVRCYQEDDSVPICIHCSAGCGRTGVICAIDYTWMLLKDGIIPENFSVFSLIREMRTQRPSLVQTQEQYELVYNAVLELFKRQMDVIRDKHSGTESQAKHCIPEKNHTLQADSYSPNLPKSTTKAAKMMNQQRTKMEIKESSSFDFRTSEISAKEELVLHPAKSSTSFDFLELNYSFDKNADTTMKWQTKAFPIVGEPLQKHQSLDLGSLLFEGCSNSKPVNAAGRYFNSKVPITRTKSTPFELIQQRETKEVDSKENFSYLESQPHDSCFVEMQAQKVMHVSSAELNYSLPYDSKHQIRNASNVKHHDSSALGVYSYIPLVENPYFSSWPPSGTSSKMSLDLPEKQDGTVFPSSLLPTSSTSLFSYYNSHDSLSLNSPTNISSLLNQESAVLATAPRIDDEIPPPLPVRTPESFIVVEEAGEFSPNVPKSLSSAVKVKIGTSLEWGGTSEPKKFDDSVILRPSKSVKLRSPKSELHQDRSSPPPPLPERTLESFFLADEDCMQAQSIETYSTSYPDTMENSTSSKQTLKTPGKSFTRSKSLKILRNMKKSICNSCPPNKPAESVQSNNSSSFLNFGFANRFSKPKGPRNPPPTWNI

O=C(c1ccc(Cl)cc1)c1cnc(-c2ccc(Cl)cc2)s1
inhibition: inactive

Cn1nc(-c2ccc(Cl)cc2)nc2c(=O)n(C)c(=O)nc1-2
IC50: > 10 µM (inactive)

Cc1ccc(Cn2c(=N)c(C(=O)NCc3ccco3)cc3c(=O)n4ccccc4nc32)cc1
inhibition: inactive

O=C(Nc1ccc2oc(-c3ccc(Cl)c(Cl)c3)nc2c1)c1ncn[nH]1
inhibition: inactive

CCc1nnc(NS(=O)(=O)c2ccc(NC(=S)NC(=O)/C=C/c3ccc(C(C)C)cc3)cc2)s1
inhibition: inactive

CCOc1ccc(-c2csc(N)c2C(=O)OC)cc1
inhibition: inactive

CCCC1COC(Cn2cncn2)(c2ccc(Cl)cc2Cl)O1 (stereo unspecified)
inhibition: inactive

CCCCCCCCC/C(=N\O)c1ccccn1
inhibition: inactive

CCn1nc(C(=O)OCC(=O)c2cc(C)n(Cc3cccs3)c2C)c2ccccc2c1=O
inhibition: inactive

Cc1cc([N+](=O)[O-])nn1CC(=O)NNC(=S)Nc1ccc([N+](=O)[O-])cc1
inhibition: inactive

NC(=O)C1CCN(C(c2ccccc2Cl)c2nnnn2CC2CCCO2)CC1 (stereo unspecified)
inhibition: inactive

CC(=O)Nc1cccc(NC(=O)CCn2cnc3cc(C)c(C)cc32)c1
inhibition: inactive

CCN(CC)CCCNC(=O)c1c(O)c2ccccc2n(Cc2ccccc2)c1=O
inhibition: inactive

O=C1C2C(C(=O)N1CCc1ccccc1)C1C=CC2C12CC2 (stereo unspecified)
inhibition: inactive

CCn1c(CSc2nc3ccccc3s2)nnc1SCC(=O)c1ccc(O)c(O)c1
inhibition: inactive

Cc1ccccc1Cn1ccc(NC(=O)CCSc2nc(-c3ccco3)cc(C(F)(F)F)n2)n1
inhibition: inactive

COc1ccc(C(=O)c2sc3nc(-c4ccccc4)ccc3c2N)cc1OC
inhibition: inactive

CC(=O)NC1CC2CCCC(C1)N2C(=O)Nc1ccccc1 (stereo unspecified)
inhibition: inactive

COc1ccc(-n2nnnc2SCC(=O)c2ccc(O)c(O)c2)cc1
inhibition: inactive

Cc1cc(C)cc(-n2c3nc4ccccc4nc3c3c(=O)n(Cc4ccco4)cnc32)c1
inhibition: inactive

Cc1ccc2oc3nc(C)c(C(=O)Nc4cccc(C(F)(F)F)c4)cc3c(=O)c2c1
inhibition: inactive

Cc1ccc(Nc2cc(C)nn2-c2nc(C)cc(=O)[nH]2)cc1
inhibition: inactive

O=C(CSc1nc2ccc(S(=O)(=O)N3CCOCC3)cc2[nH]1)N1CCOCC1
inhibition: inactive

CCOc1ccccc1NC(=O)CN(c1ccc(C)cc1)S(=O)(=O)c1c(C)noc1C
inhibition: inactive

CCNC(=O)COc1cc(C)c(Cl)c(C)c1
inhibition: inactive

CCCCCCc1cc2cc(-c3nnc(-c4ccccc4OC)o3)c(=O)oc2cc1O
inhibition: inactive

Cc1sc(NC(=O)c2sc3nc4c(C)cccc4cc3c2N)c(C#N)c1C
inhibition: inactive

Nc1c(C(=O)NCc2ccco2)c2nc3ccccc3nc2n1CCc1ccccc1F
inhibition: inactive

Cc1ccc(NC(=O)CN2C(=O)S/C(=C/c3ccc(-c4cc(C(=O)O)ccc4C)o3)C2=O)cc1C
inhibition: inactive

COc1cccc(-c2nnc(NC(=O)c3ccc(S(=O)(=O)N(CC(C)C)CC(C)C)cc3)o2)c1
inhibition: inactive

Cn1c(=O)cc(SCC(=O)NCCN2CCN(c3ccccc3F)CC2)c2cc(Cl)ccc21
inhibition: inactive

Cc1nc2c(c(=O)n1CCC1=CCCCC1)c1nc3ccccc3nc1n2/N=C/c1ccccc1
inhibition: inactive

Cc1ccc(NC(=O)CN2C(=O)S/C(=C\c3ccc(-c4cccc(C(=O)O)c4C)o3)C2=O)cc1
inhibition: inactive

Cc1nc(S/C(=C/c2ccc(-c3cccc(Cl)c3)o2)C(=O)O)n[nH]1
inhibition: inactive

COc1ccccc1/C=C\C=N\n1c(C2CCCCC2)n[nH]c1=S
inhibition: inactive

O=C(Cn1c2ccccc2c(=O)c2ccccc21)N/N=C/c1cc([N+](=O)[O-])ccc1N1CCCCCC1
inhibition: inactive

Cc1c2cc(O)c(=O)cc-2oc2cc(O)c(O)cc12
IC50: 0.48 µM

CCOC(=O)c1c2ccc(OCC(=O)N/N=C/c3ccc(C)cc3)cc2n2ccccc12
inhibition: inactive

Cc1nn(-c2ccccc2)c(C)c1/C=N/NC(=O)c1cc(C23CC4CC(CC(C4)C2)C3)[nH]n1
inhibition: inactive

COc1cnc(-c2ccccn2)nc1Sc1ccc(Cl)cc1
inhibition: inactive

Cc1ccc(C(=O)n2nc(-c3ccco3)nc2N)cc1
inhibition: inactive

C=CCNC(=S)NNC(=O)c1cccn(Cc2ccc(Cl)c(Cl)c2)c1=O
inhibition: inactive

CC(OC(=O)c1ccco1)C(=O)NC1CCCCC1 (stereo unspecified)
inhibition: inactive

CCOC(=O)c1ccc(NC(=O)CC2NCCNC2=O)cc1 (stereo unspecified)
inhibition: inactive

COc1ccc(NC(=O)C2CCCO2)cc1Cl (stereo unspecified)
inhibition: inactive

O=S(=O)(Nc1nc(-c2sccc2Cl)cs1)c1cc(Cl)ccc1Cl
inhibition: inactive

O=C(CCC(=O)OC(C(=O)c1ccccc1)c1ccccc1)Nc1ccccc1 (stereo unspecified)
inhibition: inactive

CC(/C=N/n1c(C2CCCCC2)n[nH]c1=S)=C\c1ccccc1
inhibition: inactive

Cc1ccc(CSc2nnc(-c3ccccc3N)c(=O)[nH]2)cc1
inhibition: inactive

Cc1cccc(N(C(=O)c2ccc(Cl)cc2)C2CS(=O)(=O)CC2OC(=O)c2ccc(Cl)cc2)c1 (stereo unspecified)
inhibition: inactive

CCNC(=S)NNC(=O)c1cccn(Cc2ccc(Cl)cc2)c1=O
inhibition: inactive

S=c1[nH]nc(COc2ccccc2)n1/N=C/C(Cl)=C/c1ccccc1
inhibition: inactive

Nc1nnnn1/N=C/c1ccccc1C(F)(F)F
inhibition: inactive

COc1ccc(S(=O)(=O)N2CC3CCCN3c3cc(C(F)(F)F)ccc32)cc1 (stereo unspecified)
inhibition: inactive

CCOC(=O)CC(=O)CSc1nc2c(C)c(C)ccc2cc1C
inhibition: inactive

O=C(NCc1ccco1)c1ccc2nc3sc4c(c3c(=O)n2c1)CCCC4
inhibition: inactive

C=CCNC(=S)NNC(=O)c1cccn(Cc2ccc(Cl)cc2Cl)c1=O
inhibition: inactive

C=CCNC(=S)NNC(=O)c1cccn(Cc2cccc(Cl)c2)c1=O
inhibition: inactive

O=C(Nc1nnc(COc2ccc(Cl)cc2)s1)c1ccc([N+](=O)[O-])cc1
inhibition: inactive

O=C(COc1ccccc1C(=O)N/N=C\c1ccc(O)c(O)c1)N/N=C/c1ccc(O)c(O)c1
inhibition: inactive

O=[N+]([O-])c1cc(/C=N\Nc2nccs2)ccc1O
IC50: 4.06 µM

Clc1ccc(C2=Nn3c(nnc3-c3cc(-c4ccccc4)n[nH]3)SC2)cc1
inhibition: inactive

CNC(=S)NNC(=O)c1cccn(Cc2ccc(Cl)c(Cl)c2)c1=O
inhibition: inactive

CCOC(=O)c1c(N2C(=O)Nc3cc(Cl)c(Cl)cc3N2O)sc2c1CCCCC2
inhibition: inactive

CCCn1c(Nc2ccc(Cl)cc2)nc2ccccc21
inhibition: inactive

COc1cccc(OC)c1-c1nn2c(-c3cc(-c4ccccc4)n[nH]3)nnc2s1
IC50: 4.71 µM

O=C(N/N=C/c1ccncc1)c1cc([N+](=O)[O-])cc([N+](=O)[O-])c1O
inhibition: inactive

CC(=O)Nc1nonc1NC(=O)c1ccc(C(C)(C)C)cc1
inhibition: inactive

O=C(NNC(=O)c1ccc2ccccc2c1O)c1ccccc1Cl
inhibition: inactive

O=C(Cc1cnn(-c2ccccc2)c1)c1ccc(O)c(O)c1O
inhibition: inactive

O=C(O)CCN1C(=O)/C(=C/c2ccc(-c3nc4ccccc4s3)o2)SC1=S
IC50: 1.45 µM

CC(=O)Nc1ccc(NC(=O)c2ccccc2CC[N+](=O)[O-])cc1
inhibition: inactive

CCOC(=O)Cc1csc(NC(=S)NC(=O)c2ccc(Cl)cc2)n1
inhibition: inactive

O=C(O)CCCN1C(=O)/C(=C/c2ccc(-c3nc4ccccc4s3)o2)SC1=S
IC50: 1.13 µM

O=C(O)CCCCCNc1nc(=S)[nH]c2ccccc12
inhibition: inactive

CCc1ccc2nc(NC(=O)c3ccc4c(=O)[nH]c(CN5CCOCC5)nc4c3)sc2c1
inhibition: inactive

COc1cc(OC)cc(C(=O)Nc2ccccc2C(=O)N2CCCC2)c1
inhibition: inactive

O=C(N/N=C/c1cccc([N+](=O)[O-])c1)c1cc2c(ccc3ccccc32)o1
inhibition: inactive

Cc1ccc(-c2nc3ccccc3[nH]2)cc1NC(=O)c1sc2ccccc2c1Cl
inhibition: inactive

Cc1nn(-c2ccccc2)c(Cl)c1/C=N/Nc1ccc(S(=O)(=O)Nc2ccccc2C(=O)O)cc1[N+](=O)[O-]
inhibition: inactive

CC1CCN(S(=O)(=O)c2ccc(NN=C(C#N)C#N)cc2)CC1
inhibition: inactive

O=C(c1cccs1)c1no[n+]([O-])c1C(=O)c1cccs1
IC50: 1.66 µM

Cc1ccc(-n2nc3c4c(cccc4c2=O)-c2ccccc2-3)cc1
inhibition: inactive

COc1c(N2CCN(C(=S)NCc3ccccc3)C(C)C2)c(F)cc2c(=O)c(C(=O)O)cn(C3CC3)c12 (stereo unspecified)
inhibition: inactive

O=C(Nc1ccc(-c2nc3ccc(NC(=O)c4cccs4)cc3[nH]2)cc1)c1cccs1
inhibition: inactive

CCCCNS(=O)(=O)c1ccc(NS(=O)(=O)c2c(C)cc(C)cc2C)cc1
inhibition: inactive

CC(C(=O)O)N1C(=O)/C(=C/C=C/c2ccco2)SC1=S (stereo unspecified)
IC50: 3.7 µM

O=C(CSc1nnc(-c2cccs2)n1-c1cccc(Cl)c1)c1cccc2c1OCCO2
inhibition: inactive

c1ccc(-c2nccc(-c3ccc(-n4cnc5ccccc54)cc3)n2)nc1
inhibition: inactive

Cc1nnc(NC(=O)Nc2ccc(Cl)c(Cl)c2)s1
inhibition: inactive

CCCSc1nc(C)c(-c2csc(C(C#N)=C3CCCC3)n2)cc1C#N
inhibition: inactive

CC1CCc2c(C(=O)Nc3nccs3)csc2C1 (stereo unspecified)
inhibition: inactive

Nn1cnnc1N/N=C/c1cc(Br)cc(Br)c1O
inhibition: inactive

N#CC(c1cccc(C(F)(F)F)c1)(c1ncc(C(F)(F)F)cc1Cl)N1CCOCC1 (stereo unspecified)
inhibition: inactive

Nc1c(C(=O)Nc2nc3ccccc3s2)sc2nc(-c3cccs3)ccc12
IC50: 1.24 µM

O=C(N/N=C/C=C/c1ccccc1)c1cc2c(ccc3ccccc32)o1
inhibition: inactive

Cc1cc(C(C)(C)C)cc(C)c1COC(=O)C1CCC(=O)N1 (stereo unspecified)
inhibition: inactive

COc1ccc2cc(CN(Cc3ccco3)C(c3nnnn3C3CCCCC3)C(C)C)c(=O)[nH]c2c1 (stereo unspecified)
inhibition: inactive

CN(C)/C=C/C(=O)c1ccc(F)cc1
inhibition: inactive

Cc1ccc2c(Cl)cc(Cl)c(OCC(=O)NCc3ccco3)c2n1
inhibition: inactive

Cc1cc(-c2csc(N)n2)c(C)n1CCC(C)C
inhibition: inactive
